Where two headings read alike, the source gives them in different places.
Legend:
Candida albicans = experiment: MIC and Synergy Index (Kull) of two-component compositions; type: cell-based; conditions: for MIC: Candida albicans
Description: (§1) A wide range of concentrations were tested against Pseudomonas aeruginosa, Staphylococcus aureus, Escherichia coli, and Candda albicans.
(§2) The lowest concentration of each mixture or single compound which prevents an observable level of growth was determined to be the minimum inhibitory concentration (MIC) value.
(§3) Serial dilutions of each mixture or single compound were prepared. Micro-organisms were inoculated into media: Nutrient Broth (bacteria) or Malt Extract Broth (yeast). The final concentrations of micro-organisms in media was approximately 10^5-6 CFU/ml. The inoculated media was introduced to each of the serial dilutions at a 1:1 ratio, and incubated at 30±1° C. for 24-48 hours.
(§4) The MICs for each mixture was compared with the MIC of each single compound alone.
(§5) In this study the end point is measured by the MIC.

Escherichia coli = experiment: as above; type: cell-based; conditions: for MIC: Escherichia coli
Description: as §1, §2, §3, §4
(§6) Synergy was determined using the Kull equation (F. C. Kull et. al., “Mixtures of Quaternary Ammonium Compounds and Long-chain Fatty Acids as Antifungal Agents”, Appl Microbiol. 1961 November; 9(6): 538-541), which calculates a Synergy Index (SI) according the following equation:
(§7) [formula] • wherein • QA=concentration of compound A in ppm, acting alone produced an end point, • Qa=concentration of compound A in ppm, in the mixture, which produced an end point, • QB=concentration of compound B in ppm, acting alone produced an end point, and • Qb=concentration of compound B in ppm, in the mixture, which produced an end point;
as §5

Staphylococcus aureus = experiment: as above; type: cell-based; conditions: for MIC: Staphylococcus aureus
Description: as §1, §2, §3, §4, §6, §7, §5

Pseudomonas aeruginosa = experiment: as above; type: cell-based; conditions: for MIC: Pseudomonas aeruginosa
Description: as §1, §2, §3, §4, §6, §7, §5

[1] = tested on: Aspergillus brasiliensis ATCC 16404; experiment: Preservation efficacy test in sterile distilled water, drop plate; type: cell-based; conditions: 7 days, Butyl Levulinate 0 ppm
Description: (§8) In the following example, the following test organisms were used: • Pseudomonas aeruginosa ATCC 9027 • Aspergillus brasiliensis ATCC 16404 [table] Mould strain spores were harvested (sterile distilled water+0.05% polysorbate 80) and treated to remove fungal hyphae. Mould strain spores were prepared in diluent (sterile distilled water) to obtain a final concentration of 1.0×10^5 to 1.0×10^5 cfu/ml. [table] […] Each sample was inoculated at t=0 with a known concentration of micro-organism. Each inoculated sample was then mixed until a homogenous mixture was obtained. […] The solution was left for 15 minutes. Subsequent dilutions were prepared by serial dilution of 0.1 ml into 0.9 ml of neutralising broth. Bacteria were serially diluted to 10^−4, Fungi were serially diluted to 10^−3. Each serial dilution was thoroughly mixed and 25 μl drops were aliquoted onto the surface of pre-prepared agar plates. Plates were prepared in sextupicate for each sample dilution. The agar plates were allowed to dry, then inverted and incubated under conditions appropriate for the test microorganisms. CFU/ml was calculated taking into account dilution factors. […] The lower and upper limits for drop plating were only employed on the highest and lowest dilution factor plates.

[2] = tested on: Pseudomonas aeruginosa ATCC 9027; experiment: as above; type: cell-based; conditions: 7 days, Butyl Levulinate 0 ppm
Description: as §8, with “[table] Bacteria” for “[table] Mould strain spores”, “harvested” for “harvested (sterile distilled water+0.05% polysorbate 80)”, “and” for “and treated to remove fungal hyphae. Mould strain spores were”, “of 1.0×10^6” for “of 1.0×10^5”, “to 5.0×10^6” for “to 1.0×10^5”

C. albicans = experiment: as above; type: cell-based, Candida albicans; conditions: 7 days, pH 7, Butyl Levulinate 0 ppm
Description: Yeast strains were harvested and prepared in diluent (sterile distilled water) to obtain a final concentration of 1.0×10^5 to 1.0×10^6 cfu/ml.
Preservation efficacy testing started at Day 0 (t=0). Each sample was inoculated at t=0 with a known concentration of micro-organism. Each inoculated sample was then mixed until a homogenous mixture was obtained. Inoculated samples were stored in the dark at 22.5±2.5° C. throughout the test period.
At the specified contact time of 7 days (t=7), test samples were deactivated by adding a 0.1 ml aliquot of the test sample to 0.9 ml of an appropriate neutralising broth. The solution was left for 15 minutes. Subsequent dilutions were prepared by serial dilution of 0.1 ml into 0.9 ml of neutralising broth. Bacteria were serially diluted to 10^−4, Fungi were serially diluted to 10^−3.
Each serial dilution was thoroughly mixed and 25 μl drops were aliquoted onto the surface of pre-prepared agar plates. Plates were prepared in sextupicate for each sample dilution.
The agar plates were allowed to dry, then inverted and incubated under conditions appropriate for the test microorganisms.
CFU/ml was calculated taking into account dilution factors. Colonies from the incubated plates were enumerated using the lower count limit of <10 CFU/ml and the upper count limit of >330 CFU/ml.
The lower and upper limits for drop plating were only employed on the highest and lowest dilution factor plates.
The test organisms were prepared and the method was performed according to the protocol of Example 1.

[3] = read-out: MIC (ppm) to inhibit growth: DHA
[4] = ethyl levulinate alone, or its concentration in the mixture with Sodium benzoate, read-out: MIC (ppm) to inhibit growth: Ethyl levulinate
[5] = ethyl levulinate alone, or its concentration in the mixture with Sodium Pyrithione
[6] = Lactic Acid alone, or its concentration in the mixture with ethyl levulinate, read-out: MIC (ppm) to inhibit growth: Lactic Acid
[7] = read-out: MIC (ppm) to inhibit growth: Potassium Sorbate
[8] = pH 7, Potassium Sorbate 5000 ppm
[9] = pH 7, Potassium Sorbate 10000 ppm
[10] = pH 7, Potassium Sorbate 15000 ppm
[11] = pH 7, Potassium Sorbate 20000 ppm
[12] = pH 7, Potassium Sorbate 25000 ppm
[13] = Sodium benzoate alone, or its concentration in the mixture with butyl levulinate
[14] = Sodium benzoate alone, or its concentration in the mixture with ethyl levulinate
[15] = pH 7, Sodium Benzoate 10000 ppm
[16] = pH 7, Sodium Benzoate 15000 ppm
[17] = pH 7, Sodium Benzoate 20000 ppm
[18] = pH 7, Sodium Benzoate 25000 ppm
[19] = pH 8, Sodium Benzoate 10000 ppm
[20] = pH 8, Sodium Benzoate 15000 ppm
[21] = pH 8, Sodium Benzoate 20000 ppm
[22] = pH 8, Sodium Benzoate 25000 ppm
[23] = Sodium Pyrithione alone, or its concentration in the mixture with ethyl levulinate
[24] = Sodium pyrithione alone, or its concentration in the mixture with butyl levulinate
[25] = ADBAC alone, or its concentration in the mixture with ethyl levulinate

O=c1[nH]sc2ccccc12 [BIT, benzisothiazolinone, reference compound]
MIC (ppm) to inhibit growth: BIT (Candida albicans; BIT alone, or its concentration in the mixture with butyl levulinate): 31 ppm

CC(=O)C1C(=O)C=C(C)OC1=O (stereo not drawn) [DHA, dehydroacetic acid, reference compound]
MIC (Escherichia coli; [3]): 5000 µg/mL | MIC (Candida albicans; [3]): 250 µg/mL

CCOC(=O)CCC(C)=O [Ethyl levulinate, ethyl levulinate]
MIC (Staphylococcus aureus; ethyl levulinate alone, or its concentration in the mixture with Lactic Acid, read-out: MIC (ppm) to inhibit growth: Ethyl levulinate): 12500 µg/mL | MIC (Staphylococcus aureus; ethyl levulinate alone, or its concentration in the mixture with Potassium Sorbate, read-out: MIC (ppm) to inhibit growth: Ethyl levulinate): 12500 µg/mL | MIC (Staphylococcus aureus; [4]): 25000 µg/mL | MIC (Escherichia coli; [4]): 25000 µg/mL | MIC (Pseudomonas aeruginosa; ethyl levulinate alone, or its concentration in the mixture with ADBAC, read-out: MIC (ppm) to inhibit growth: Ethyl levulinate): 12500 µg/mL | MIC (ppm) to inhibit growth: Ethyl levulinate (Pseudomonas aeruginosa; [5]): 12500 ppm | MIC (Candida albicans; [4]): 25000 µg/mL | MIC (ppm) to inhibit growth: Ethyl levulinate (Candida albicans; ethyl levulinate alone, or its concentration in the mixture with ADBAC): 25000 ppm | MIC (ppm) to inhibit growth: Ethyl levulinate (Candida albicans; ethyl levulinate alone, or its concentration in the mixture with Lactic Acid): 25000 ppm | MIC (ppm) to inhibit growth: Ethyl levulinate (Candida albicans; ethyl levulinate alone, or its concentration in the mixture with Potassium Sorbate): 25000 ppm | MIC (ppm) to inhibit growth: Ethyl levulinate (Candida albicans; [5]): 25000 ppm

CCCCNC(=O)OCC#CI [IPBC, 3-Iodo-2-propynyl butylcarbamate, reference compound]
Log reduction ([1]; pH 7, IPBC 100 ppm): 1.21 | Log reduction ([1]; pH 7, IPBC 250 ppm): 0.77 | Log reduction ([1]; pH 7, IPBC 500 ppm): 0.71 | Log reduction ([1]; pH 7, IPBC 750 ppm): 0.57 | Log reduction ([1]; pH 7, IPBC 1000 ppm): 0.85

CC(O)C(=O)O (stereo not drawn) [Lactic Acid, lactic acid, reference compound]
MIC (Staphylococcus aureus; [6]): 156 µg/mL | MIC (Pseudomonas aeruginosa; Lactic Acid alone, or its concentration in the mixture with butyl levulinate, read-out: MIC (ppm) to inhibit growth: Lactic Acid): 625 µg/mL | MIC (Candida albicans; [6]): 10000 µg/mL

C/C=C/C=C/C(=O)[O-].[K+] [Potassium Sorbate, potassium sorbate, reference compound]
MIC (Staphylococcus aureus; [7]): 156 µg/mL | Log reduction [2, 8]: <0.03 | Log reduction [2, 9]: <0.03 | Log reduction [2, 10]: <0.03 | Log reduction [2, 11]: >4.55 | Log reduction [2, 12]: >4.55 | Log reduction ([2]; pH 8, Potassium Sorbate 5000 ppm): <0.33 | Log reduction ([2]; pH 8, Potassium Sorbate 10000 ppm): <0.33 | Log reduction ([2]; pH 8, Potassium Sorbate 15000 ppm): <0.33 | Log reduction ([2]; pH 8, Potassium Sorbate 20000 ppm): <0.33 | Log reduction ([2]; pH 8, Potassium Sorbate 25000 ppm): <0.33 | MIC (Candida albicans; [7]): 2500 µg/mL | MIC (ppm) to inhibit growth: Potassium Sorbate (Candida albicans; Potassium Sorbate alone, or its concentration in the mixture with butyl levulinate): 2500 ppm | Log reduction (C. albicans; Potassium Sorbate 5000 ppm): 1.01 | Log reduction (C. albicans; Potassium Sorbate 10000 ppm): 0.72 | Log reduction (C. albicans; Potassium Sorbate 15000 ppm): 0.72 | Log reduction (C. albicans; Potassium Sorbate 20000 ppm): 0.92 | Log reduction (C. albicans; Potassium Sorbate 25000 ppm): 0.83 | Log reduction [1, 8]: 0.58 | Log reduction [1, 9]: 0.67 | Log reduction [1, 10]: 0.45 | Log reduction [1, 11]: 0.64 | Log reduction [1, 12]: 0.52

O=C([O-])c1ccccc1.[Na+] [Sodium Benzoate, sodium benzoate, reference compound]
MIC (ppm) to inhibit growth: Sodium benzoate (Staphylococcus aureus; [13]): 15000 ppm | MIC (ppm) to inhibit growth: Sodium benzoate (Staphylococcus aureus; [14]): 15000 ppm | MIC (ppm) to inhibit growth: Sodium benzoate (Escherichia coli; [13]): 7500 ppm | MIC (ppm) to inhibit growth: Sodium benzoate (Escherichia coli; [14]): 7500 ppm | Log reduction ([2]; pH 7, Sodium Benzoate 5000 ppm): 1.73 | Log reduction [2, 15]: >4.90 | Log reduction [2, 16]: >4.90 | Log reduction [2, 17]: >4.90 | Log reduction [2, 18]: >4.90 | Log reduction ([2]; pH 8, Sodium Benzoate 5000 ppm): 1.54 | Log reduction [2, 19]: 1.36 | Log reduction [2, 20]: 1.57 | Log reduction [2, 21]: 3.20 | Log reduction [2, 22]: >4.57 | MIC (ppm) to inhibit growth: Sodium benzoate (Candida albicans; [13]): 7500 ppm | MIC (ppm) to inhibit growth: Sodium benzoate (Candida albicans; [14]): 7500 ppm | Log reduction ([1]; pH 7, Sodium Benzoate 5000 ppm): 2.09 | Log reduction [1, 15]: 2.14 | Log reduction [1, 16]: 2.20 | Log reduction [1, 17]: 2.33 | Log reduction [1, 18]: 3.11 | Log reduction ([1]; pH 8, Sodium Benzoate 5000 ppm): 0.33 | Log reduction [1, 19]: 0.70 | Log reduction [1, 20]: 0.64 | Log reduction [1, 21]: 0.60 | Log reduction [1, 22]: 0.55

[Na+].[O-][n+]1ccccc1[S-] [Sodium Pyrithione, sodium pyrithione, reference compound]
MIC (ppm) to inhibit growth: Sodium Pyrithione (Pseudomonas aeruginosa; [23]): 63 ppm | MIC (ppm) to inhibit growth: Sodium Pyrithione (Pseudomonas aeruginosa; [24]): 63 ppm | MIC (ppm) to inhibit growth: Sodium Pyrithione (Candida albicans; [23]): 31 ppm | MIC (ppm) to inhibit growth: Sodium Pyrithione (Candida albicans; [24]): 16 ppm

alkyldimethylbenzylammonium chloride [ADBAC]
MIC (ppm) to inhibit growth: ADBAC (Pseudomonas aeruginosa; [25]): 16 ppm | MIC (ppm) to inhibit growth: ADBAC (Candida albicans; [25]): 8 ppm

poly(hexamethylene) biguanide [PHMB, reference compound]
MIC (ppm) to inhibit growth: PHMB (Candida albicans; PHMB alone, or its concentration in the mixture with butyl levulinate): 313 ppm

— patent publication US20250040543A1, “Preservative Composition” (ARXADA AG, priority 2021, published 2025)
